Assay results reported in patent publication US6716828B1, “Compounds, methods and pharmaceutical compositions for treating cellular damage, such as neural or cardiovascular tissue damage” (Guilford Pharmaceuticals, Inc., priority 1999, dated 2004).

Key:
[1] = biological target: T1, purified recombinant human PARP (Homo sapiens, UniProt P09874); assay: PARP enzyme assay (IC50), [3H]NAD incorporation; format: biochemical; conditions: approximate IC50 values
T1 construct: purchased Trevigan (Gaithersburg, Md.)
Method: A convenient method to determine IC50 of a PARP inhibitor compound is PARP assay using purified recombinant human PARP from Trevigan (Gaithersburg, Md.), as follows: The PARP enzyme assay is set up on ice in a volume of 100 microliters consisting of 100 mM Tris-HCl (pH 8.0). 1 mM MgCl2, 28 mM KCl, 28 mM NaCl, 0.1 mg/ml of DNase I activated herring sperm DNA (Sigma, Mo.), 3.0 micromolar [3H]nicotinamide adenine dinucleotide (470 mci/mmole), 7 micrograms/ml PARP enzyme, and various concentrations of the compounds to be tested. The reaction is initiated by incubating the mixture at 25° C. After 15 minutes of incubation, the reaction is terminated by adding 500 microliters of ice code 20% (w/v) trichloracetic acid. The precipitate formed is transferred onto a glass fiber filter (Packard Unifilter-GF/B) and washed three items with ethanol. After the filter is dried, the radioactivity is determined by scintillation counting.
Using the PARP assay described above, approximate IC50 values were obtained for the following compounds: […]

[2] = test system: rabbits; conditions: cited from earlier work
[3] = test system: human fibroblast cells lines (either W138 or BJ cells); assay: Extending or increasing proliferative capacity and lifespan of cells; format: cell-based
Method: At the time of subdivision, the media is aspirated, and the cells rinsed with phosphate buffer saline (PBS) and then trypsinzied. The cells are counted with a Coulter counter and plated at a density of 10^5 cells per cm^2 in 6-well tissue culture plates in DMEM/199 medium supplemented with 10% bovine calf serum and varying amounts (0.10 μM, and 1 mM; from a 100× stock solution in DMEM/M199 medium) of a PARP inhibitor. This process is repeated every 7 days until the cells appear to stop dividing. The untreated (control) cells reach senescence and stop dividing after about 40 days a culture. […] The cells treated with 1 mM 3-AB will still divide after 60 days in culture.

T1 sequence (P09874 whole entry): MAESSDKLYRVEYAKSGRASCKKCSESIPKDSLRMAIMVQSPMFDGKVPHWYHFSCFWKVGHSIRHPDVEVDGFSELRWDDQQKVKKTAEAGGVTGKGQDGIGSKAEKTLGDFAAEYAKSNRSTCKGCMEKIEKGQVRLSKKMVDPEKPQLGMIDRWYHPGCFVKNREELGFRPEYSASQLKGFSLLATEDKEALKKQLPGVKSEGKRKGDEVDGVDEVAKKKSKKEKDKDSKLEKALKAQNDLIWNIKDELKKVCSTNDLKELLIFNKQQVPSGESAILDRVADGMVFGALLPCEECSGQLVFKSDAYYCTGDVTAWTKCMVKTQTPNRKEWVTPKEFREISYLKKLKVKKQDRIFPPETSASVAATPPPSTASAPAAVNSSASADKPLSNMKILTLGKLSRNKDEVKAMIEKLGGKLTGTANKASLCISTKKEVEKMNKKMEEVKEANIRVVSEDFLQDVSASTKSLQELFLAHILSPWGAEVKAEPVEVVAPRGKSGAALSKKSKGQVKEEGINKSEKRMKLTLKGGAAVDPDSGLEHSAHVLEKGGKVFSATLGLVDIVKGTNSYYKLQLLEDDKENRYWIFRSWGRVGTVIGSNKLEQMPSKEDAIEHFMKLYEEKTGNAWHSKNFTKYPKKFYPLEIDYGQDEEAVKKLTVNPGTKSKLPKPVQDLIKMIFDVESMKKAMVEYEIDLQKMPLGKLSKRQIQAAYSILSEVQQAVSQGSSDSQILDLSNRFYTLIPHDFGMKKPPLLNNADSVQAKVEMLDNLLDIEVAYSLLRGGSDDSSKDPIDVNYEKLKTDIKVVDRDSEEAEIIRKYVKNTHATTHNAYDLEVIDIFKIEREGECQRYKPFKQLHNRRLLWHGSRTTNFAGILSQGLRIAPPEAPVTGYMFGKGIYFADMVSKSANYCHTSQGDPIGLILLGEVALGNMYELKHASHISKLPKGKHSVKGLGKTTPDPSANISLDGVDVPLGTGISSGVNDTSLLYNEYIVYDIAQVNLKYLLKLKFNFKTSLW

| SMILES | IC50 [1] [nM] | other results |
| --- | --- | --- |
| COP(=O)(O)Cc1ccc2c(c1)-c1n[nH]c(=O)c3cccc(c13)O2 |  | melting point: 196 to 201 °C |
| CC(=O)Nc1ccc2c(c1)-c1n[nH]c(=O)c3cccc-2c13 | 69 |  |
| CC(=O)Nc1ccc2c(c1)-c1n[nH]c(=O)c3cccc(c13)O2 | 36 |  |
| O=c1[nH]nc2c3c(cccc13)Oc1ccc(S(=O)(=O)O)cc1-2 | 52 |  |
| O=c1[nH]nc2c3c(cccc13)Oc1ccc(S(=O)(=O)NCCN3CCCCC3)cc1-2 | 192 |  |
| O=c1[nH]nc2c3c(cccc13)Oc1ccc(S(=O)(=O)NCCN3CCOCC3)cc1-2 | 81 |  |
| CN1CCN(S(=O)(=O)c2ccc3c(c2)-c2n[nH]c(=O)c4cccc(c24)O3)CC1 | 208 |  |
| CCOP(=O)(Nc1ccc2c(c1)-c1n[nH]c(=O)c3cccc(c13)O2)OCC | 199 |  |
| CS(=O)(=O)Nc1ccc2c(c1)-c1n[nH]c(=O)c3cccc(c13)O2 | 198 |  |
| O=C(O)c1cccc(S(=O)(=O)Nc2ccc3c(c2)-c2n[nH]c(=O)c4cccc-3c24)c1 | 52 |  |
| O=C(O)CCC(=O)Nc1ccc2c(c1)-c1n[nH]c(=O)c3cccc-2c13 | 29 |  |
| CCN(CC)CCNS(=O)(=O)c1ccc2c(c1)-c1n[nH]c(=O)c3cccc-2c13 | 390 |  |
| O=c1[nH]nc2c3c(cccc13)-c1ccc(S(=O)(=O)NCCN3CCOCC3)cc1-2 | 340 |  |
| O=c1[nH]nc2c3c(cccc13)Oc1ccc(NS(=O)(=O)O)cc1-2 | 25 |  |
| O=C1NN=C2C3C=CC=CC3[S+]([O-])C3=CC=CC1C32 (stereo not drawn) | 340 |  |
| O=C(O)CCC(=O)Nc1ccc2c(c1)-c1n[nH]c(=O)c3cccc(c13)O2 | 21 |  |
| NCNCc1ccc2c(c1)-c1n[nH]c(=O)c3cccc(c13)O2 | 45 |  |
| NNC(=O)c1ccc(OCc2ccc3c(c2)-c2n[nH]c(=O)c4cccc(c24)O3)cc1 | 35 |  |
| NNC(=O)c1cc(OCc2ccc3c(c2)-c2n[nH]c(=O)c4cccc(c24)O3)cc(C(=O)NN)c1 | 40 |  |
| N#CCc1ccc2c(c1)-c1n[nH]c(=O)c3cccc(c13)O2 | 25 |  |
| CN(C)Cc1ccc2c(c1)-c1n[nH]c(=O)c3cccc(c13)O2 | 17 |  |
| CCCCN(C)Cc1ccc2c(c1)-c1n[nH]c(=O)c3cccc(c13)O2 | 120 |  |
| O=c1[nH]nc2c3c(cccc13)Oc1ccc(CN3CCCCC3)cc1-2 | 72 |  |
| NCCSCc1ccc2c(c1)-c1n[nH]c(=O)c3cccc(c13)O2 | 28 |  |
| Cc1cc2c(c(S(=O)(=O)O)c1)Oc1cccc3c(=O)[nH]nc-2c13 | 2030 |  |
| CN(C)c1cccc(OCc2ccc3c(c2)-c2n[nH]c(=O)c4cccc(c24)O3)c1 | 128 |  |
| O=C1NCC2c3cc(S(=O)(=O)O)ccc3Oc3cccc1c32 (stereo not drawn) | 161 |  |

| SMILES | IC50 [1] [nM] | other results |
| --- | --- | --- |
| O=c1[nH]nc2c3c(cccc13)Oc1ccc(COc3cccnc3)cc1-2 | 54 |  |
| O=c1[nH]nc2c3c(cccc13)Oc1ccc(CN3CCN(Cc4ccccc4)CC3)cc1-2 | 44 |  |
| O=c1[nH]nc2c3c(cccc13)Oc1ccc(CN3CCN(c4ccccc4)CC3)cc1-2 | 62 |  |
| O=C1NCC2c3cc(S(=O)(=O)NCCN4CCCCC4)ccc3Oc3cccc1c32 (stereo not drawn) | 361 |  |
| O=c1[nH]nc2c3c(cccc13)Oc1ccc(CSc3ccncc3)cc1-2 | 17 |  |
| O=c1[nH]nc2c3c(cccc13)Oc1c-2ccc2ccccc12 | 40000 |  |
| O=c1[nH]nc2c3c(cccc13)Oc1ccc(S(=O)(=O)NCCc3ccncc3)cc1-2 | 89 |  |
| Cc1cc2c(c(-n3nc4ccccc4n3)c1)Oc1cccc3c(=O)[nH]nc-2c13 | 25000 |  |
| O=c1[nH]nc2c3c(cccc13)Oc1cc3ccccc3cc1-2 | 139 |  |
| O=c1[nH]nc2c3c(cccc13)Oc1ccc(-c3nc4ccccc4nc3-c3ccccc3)cc1-2 | 100 |  |
| O=c1[nH]nc2c3c(cccc13)Oc1ccc(CN3CCN(c4ccccn4)CC3)cc1-2 | 77 |  |
| CN1CCN(S(=O)(=O)c2ccc3c(c2)C2CNC(=O)c4cccc(c42)O3)CC1 (stereo not drawn) | 233 |  |
| O=C1NCC2c3cc(S(=O)(=O)NN4CCOCC4)ccc3Oc3cccc1c32 (stereo not drawn) | 144 |  |
| O=C(O)[C@@H]1CCCN1S(=O)(=O)c1ccc2c(c1)-c1n[nH]c(=O)c3cccc(c13)O2 | 58 |  |
| COC(=O)C1CCCCN1S(=O)(=O)c1ccc2c(c1)C1CNC(=O)c3cccc(c31)O2 (stereo not drawn) | 595 |  |
| O=c1[nH]nc2c3c(cccc13)Oc1ccc(S(=O)(=O)NCCN(CCO)CCO)cc1-2 | 158 |  |
| CC(=O)OC(C(=O)O)C(OC(C)=O)C(=O)Nc1ccc2c(c1)-c1n[nH]c(=O)c3cccc-2c13 (stereo not drawn) | 59 |  |
| O=c1[nH]nc2c3c(cccc13)Oc1ccc(S(=O)(=O)NCCCN3CCOCC3)cc1-2 | 185 |  |
| O=c1[nH]nc2c3c(cccc13)Oc1ccc(S(=O)(=O)NC3CN4CCC3CC4)cc1-2 (stereo not drawn) | 37 |  |
| CN(C)CCN(C)Cc1ccc2c(c1)-c1n[nH]c(=O)c3cccc(c13)O2 | 85 |  |
| CC(=O)OC(C(=O)O)C(OC(C)=O)C(=O)Nc1ccc2c(c1)-c1n[nH]c(=O)c3cccc(c13)O2 (stereo not drawn) | 18 |  |
| O=C(O)C(O)C(O)C(=O)Nc1ccc2c(c1)-c1n[nH]c(=O)c3cccc-2c13 (stereo not drawn) | 65 |  |
| O=C(O)C(O)C(O)C(=O)Nc1ccc2c(c1)-c1n[nH]c(=O)c3cccc(c13)O2 (stereo not drawn) | 23 |  |
| O=c1[nH]nc2c3c(cccc13)Oc1ccc(CN3CCOCC3)cc1-2 | 75 |  |
| Oc1cccc2c(O)nccc12 [1,5-dihydroxyisoquinoline] |  | reduction in infarct size ([2]; 1 mg/kg): 38-48% |
| NC(=O)c1cccc(N)c1 [3-amino-benzamide] |  | effect on lifespan and proliferative capacity of the cells ([3]; 10 μM): little or no effect; effect on lifespan and proliferative capacity of the cells ([3]; 100 μM): lengthen the lifespan of the cells; effect on lifespan and proliferative capacity of the cells ([3]; 1 mM): dramatically increases the lifespan and proliferative capacity of the cells; time in culture at which cells still divide ([3]; 1 mM, untreated cells stop dividing after about 40 days): > 60 days; reduction in infarct size in the heart ([2]; single injection 10 mg/kg, one minute before occlusion or one minute before reperfusion): 32-42% |
